Tests used:
[1] = tested on: Pseudomonas aeruginosa ATCC27853; test: Broth dilution MIC/MBC against Pseudomonas aeruginosa; type: cell-based; conditions: P. aeruginosa, 24 h, 37° C.
Procedure: (§1) Bacterial strains of Pseudomonas aeruginosa ATCC27853 (gram-negative) and Staphylococcus aureus ATCC25923 (gram-positive) were subjected to antibacterial studies. The bacteria were sub-cultured and maintained on Mueller Hinton Agar (MHA). A stock solution of the nanomaterial (8 mg/ml) was sonicated for 10 minutes in Mueller Hinton Broth (MHB) to obtain a homogenized solution for an antibacterial assay. Inoculum was prepared by adjusting the cell number to 1.5×10^8 colony forming unit per milliliter (CFU per ml) by using freshly grown strains, grown overnight at 37° C. […] About 100 μL of adjusted inoculum was inoculated into each tube and were further incubated for 24 h (at 37° C.) with agitation of 120 rotations per minute (rpm). A control tube of bacteria, also referred as control, had no nanomaterial. 10 μL extracted from the tubes were put on prepared MHA plates and further incubated at the same conditions. After the completion of incubation duration, the MHA plates were recorded for MIC and MBC values. MIC was taken as the lowest concentration of nanomaterial that inhibited 90% of the bacterial growth. However, MBC was recorded as the lowest concentration that killed the bacterial cells or had CFU less than three. […]

[2] = tested on: Staphylococcus aureus ATCC25923; test: Broth dilution MIC/MBC against Staphylococcus aureus; type: cell-based; conditions: S. aureus, 24 h, 37° C.
Procedure: as §1

[3] = tested on: human colorectal carcinoma (HCT-116) cells; test: MTT cell viability assay on HCT-116 cells; type: cell-based
Procedure: (§2) Two cancer cell lines, namely, HCT-116 and HeLa were considered to study the impact of samples (medicinal nanocomposite) on viability and proliferation of such cell lines. A non-cancer cell line, embryonic kidney cells (HEK-293), was considered as a control cell line. HCT-116, HeLa and HEK-293 are collectively referred to as ‘the cells’ or individually as ‘the cell’ unless otherwise specified. The cells were cultured and maintained in the Dulbecco's Modified Eagle Media (DMEM), L-glutamine (5%), penicillin (1%), streptomycin (1%), Fetal bovine serum (FBS) (10%), and selenium chloride (1%). The cells were grown in 96 well plates in a 5% CO2 incubator (Thermo Fisher Scientific, Inc., Waltham, MA, USA) at 37° C., and 75-80% confluence cells and the cells processed for further assay.
A MTT assay is a colorimetric assay for measuring cell metabolic activity. […]
In control and nano formulation treated cells, MTT (5 mg/ml) was added, and the cells were further incubated in a CO2 incubator for 4 hours. Further, the cell culture media was replaced with dimethyl sulfoxide (DMSO) (1%), and the 96-well plate was further examined under an enzyme-linked immunoassay (ELISA) plate reader (Biotek Instruments, USA) at a wavelength of 570 nm. The percentage of cell viability was calculated for a statistical analysis. […]

[4] = tested on: human cervical cancer (HeLa) cells; test: MTT cell viability assay on HeLa cells; type: cell-based; conditions: for effect on HeLa cell viability, growth and proliferation (in words): 48 hours, 5.0 to 50 μg/ml
Procedure: as §2
A MTT assay is a colorimetric assay for measuring cell metabolic activity. The MTT assay is based on the ability of nicotinamide adenine dinucleotide phosphate (NADPH)-dependent cellular oxidoreductase enzymes to reduce the tetrazolium dye MTT to insoluble formazan, which has a purple colour. […] In control group, MSS, 1 wt. % Ag/MSS, 2 wt. % Ag/MSS, 4 wt. % Ag/MSS, 6 wt. % Ag/MSS, Ag-silicalite, and CP were […] and after 48 hours, the cells were incubated in MTT (Sigma-Aldrich, St. Louis, MO, USA) for 4 hours.
In control and nano formulation treated cells, MTT (5 mg/ml) was added, and the cells were further incubated in a CO2 incubator for 4 hours. Further, the cell culture media was replaced with dimethyl sulfoxide (DMSO) (1%), and the 96-well plate was further examined under an enzyme-linked immunoassay (ELISA) plate reader (Biotek Instruments, USA) at a wavelength of 570 nm. The percentage of cell viability was calculated for a statistical analysis. ANOVA were used to analyze the data. All the analysis was run on GraphPad Prism software. P value less than 0.05 was taken as significant difference in results.

HCT-116 cells = test: Apoptotic DAPI staining assay on HCT-116 cells; type: cell-based, human; conditions: HCT-116, 25 μg/ml, 48-hour treatment
Excerpt: DAPI is a fluorescent dye used to distinguish between live and dead cells. In live cells, the dye pass through a membrane less effectively. Therefore, the DAPI staining assay is an effective marker to identify the cell viability based on the cell structural changes. The morphology changes of cancer nuclear structure due to treatments of MSS, 1 wt. % Ag/MSS, 2 wt. % Ag/MSS, 4 wt. % Ag/MSS, 6 wt. % Ag/MSS, Ag-silicalite, and CP were examined by the DAPI staining assay. Cells were divided into two groups such as a control group and an experimental group. The control group was without nano formulation and CP treatments. In the experimental group, 1 wt. % Ag/MSS, 2 wt. % Ag/MSS, 4 wt. % Ag/MSS, 6 wt. % Ag/MSS, Ag-silicalite, and CP (25 μg/ml) were added.
Post 48-hour treatment, the control and experimental groups were exposed to ice-cold (4%) paraformaldehyde and further with Triton X-100 in the PBS solution. The cells were stained with DAPI (1.0 μg/ml) for 5 minutes under a dark environment, and the cells were finally washed with the PBS solution and cover slipped. A deoxyribonucleic acid (DNA) staining was examined by using confocal scanning microscope (Zeiss, Germany). The data presented as mean (±) standard deviation (SD) obtained from triplicates and one-way ANOVA followed by Dennett's post hoc test with GraphPad Prism Software (GraphPad Software, USA) for final statistical analysis.

Q: With `O=[N+]([O-])[O-].[Ag+]` [AgNO3, Silver nitrate] as the molecule, how does the “antibacterial activity, MIC/MBC (in words)” value [1] read?
A: Its value is “showed effectiveness”.

Q: And the “antibacterial activity, MIC/MBC (in words)” value [2]?
A: The value was “showed effectiveness”.

Q: How did the “effect on HCT-116 cell viability, growth and proliferation (in words)” value ([3]; 48 hours, 5.0 to 50 μg/ml) turn out when `N.N.[Cl][Pt][Cl]` [CP, cisplatin] was run?
A: The value was “dose-dependent inhibitory action”.

Q: And the “inhibitory concentration (IC50)” value ([3]; HCT-116 cells, 48 hours treatment)?
A: Its value is 13 µg/mL.

Q: And the “effect on HeLa cell viability, growth and proliferation (in words)” value [4]?
A: Its value is “dose-dependent inhibitory action”.

Q: And the “effect on HeLa cell viability, growth and proliferation (in words)” value ([4]; listed as cisplatin)?
A: The value was “significant decrease”.

Q: What about the “inhibitory concentration (IC50)” value ([4]; HeLa cells, 48 hours treatment) of the same molecule?
A: Its value is 13 µg/mL.

Q: What about the “number of DAPI stained colon cancer cells versus control (in words)” value (HCT-116 cells) of the same molecule?
A: Its value is “significant decrease in the number of colon cancer cells”.

— patent publication US12102651B1, “Solvent-based method for making nanocomposite pharmaceutical material” (Imam Abdulrahman Bin Faisal University, priority 2022, dated 2024)
